Experiment: Stability of cannabinoid compounds and Vitamin E components in Beverage 2 (AB Red) by LCMSMS
Assay type: physicochemical

C=C(C)[C@@H]1CCC(C)=C[C@H]1c1c(O)cc(CCC)cc1O [CBDV, cannabidivarin]
Stability of Plant-Derived Cannabinoid Compounds in AB Red (stored at 8° C., 0 days): 0.200 µg/mL | Stability of Plant-Derived Cannabinoid Compounds in AB Red (stored at 8° C., 1 days): 0.194 µg/mL | Stability of Plant-Derived Cannabinoid Compounds in AB Red (stored at 8° C., 2 days): 0.197 µg/mL | Stability of Plant-Derived Cannabinoid Compounds in AB Red (stored at 8° C., 3 days): 0.199 µg/mL | Stability of Plant-Derived Cannabinoid Compounds in AB Red (stored at 8° C., 5 days): 0.198 µg/mL | Stability of Plant-Derived Cannabinoid Compounds in AB Red (stored at 8° C., 8 days): 0.198 µg/mL | Stability of Plant-Derived Cannabinoid Compounds in AB Red (stored at 8° C., 9 days): 0.201 µg/mL | Stability of Plant-Derived Cannabinoid Compounds in AB Red (stored at 8° C., 10 days): 0.194 µg/mL | Stability of Plant-Derived Cannabinoid Compounds in AB Red (stored at 8° C., 11 days): 0.195 µg/mL | Stability of Plant-Derived Cannabinoid Compounds in AB Red (stored at 8° C., 12 days): 0.198 µg/mL | Stability of Plant-Derived Cannabinoid Compounds in AB Red (stored at 8° C., 15 days): 0.194 µg/mL | Stability of Plant-Derived Cannabinoid Compounds in AB Red (stored at 8° C., 16 days): 0.195 µg/mL | Stability of Plant-Derived Cannabinoid Compounds in AB Red (stored at 8° C., 17 days): 0.195 µg/mL | Stability of Plant-Derived Cannabinoid Compounds in AB Red (stored at 8° C., 18 days): 0.195 µg/mL | Stability of Plant-Derived Cannabinoid Compounds in AB Red (stored at 8° C., 19 days): 0.199 µg/mL | Stability of Plant-Derived Cannabinoid Compounds in AB Red (stored at 8° C., 22 days): 0.200 µg/mL | Stability of Plant-Derived Cannabinoid Compounds in AB Red (stored at 8° C., 23 days): 0.194 µg/mL | Stability of Plant-Derived Cannabinoid Compounds in AB Red (stored at 8° C., 24 days): 0.197 µg/mL | Stability of Plant-Derived Cannabinoid Compounds in AB Red (stored at 8° C., 25 days): 0.199 µg/mL | Stability of Plant-Derived Cannabinoid Compounds in AB Red (stored at 8° C., 26 days): 0.199 µg/mL | Stability of Plant-Derived Cannabinoid Compounds in AB Red (stored at 8° C., 29 days): 0.197 µg/mL | Stability of Plant-Derived Cannabinoid Compounds in AB Red (stored at 8° C., 30 days): 0.200 µg/mL | Stability of Plant-Derived Cannabinoid Compounds in AB Red (stored at 8° C., 60 days): 0.199 µg/mL | Stability of Plant-Derived Cannabinoid Compounds in AB Red (stored at 8° C., 90 days): 0.196 µg/mL | Stability of Plant-Derived Cannabinoid Compounds in AB Red (stored at 8° C., 120 days): 0.193 µg/mL | Stability of Plant-Derived Cannabinoid Compounds in AB Red (stored at 8° C., 150 days): 0.198 µg/mL | Stability of Plant-Derived Cannabinoid Compounds in AB Red (stored at 8° C., 180 days): 0.192 µg/mL | Stability of Plant-Derived Cannabinoid Compounds in AB Red (stored at 8° C., 210 days): 0.193 µg/mL | Stability of Plant-Derived Cannabinoid Compounds in AB Red (stored at 8° C., 240 days): 0.192 µg/mL | Stability of Plant-Derived Cannabinoid Compounds in AB Red (stored at 8° C., 270 days): 0.195 µg/mL | Stability of Plant-Derived Cannabinoid Compounds in AB Red (stored at 8° C., 300 days): 0.193 µg/mL | Stability of Plant-Derived Cannabinoid Compounds in AB Red (stored at 8° C., 330 days): 0.191 µg/mL | Stability of Plant-Derived Cannabinoid Compounds in AB Red (stored at 8° C., 360 days): 0.193 µg/mL | Stability of Plant-Derived Cannabinoid Compounds in AB Red (stored at 8° C., 390 days): 0.194 µg/mL | Stability of Plant-Derived Cannabinoid Compounds in AB Red (stored at 8° C., 420 days): 0.193 µg/mL | Stability of Plant-Derived Cannabinoid Compounds in AB Red (stored at 8° C., 450 days): 0.195 µg/mL | Stability of Plant-Derived Cannabinoid Compounds in AB Red (stored at 8° C., 480 days): 0.190 µg/mL | Stability of Plant-Derived Cannabinoid Compounds in AB Red (stored at 8° C., 510 days): 0.184 µg/mL | Stability of Plant-Derived Cannabinoid Compounds in AB Red (stored at 8° C., 540 days): 0.185 µg/mL | Stability of Plant-Derived Cannabinoid Compounds in AB Red (stored at 8° C., 570 days): 0.183 µg/mL | Stability of Plant-Derived Cannabinoid Compounds in AB Red (stored at 21-25° C., 0 days): 0.20 µg/mL | Stability of Plant-Derived Cannabinoid Compounds in AB Red (stored at 21-25° C., 1 days): 0.20 µg/mL | Stability of Plant-Derived Cannabinoid Compounds in AB Red (stored at 21-25° C., 2 days): 0.20 µg/mL | Stability of Plant-Derived Cannabinoid Compounds in AB Red (stored at 21-25° C., 3 days): 0.20 µg/mL | Stability of Plant-Derived Cannabinoid Compounds in AB Red (stored at 21-25° C., 5 days): 0.19 µg/mL | Stability of Plant-Derived Cannabinoid Compounds in AB Red (stored at 21-25° C., 8 days): 0.20 µg/mL | Stability of Plant-Derived Cannabinoid Compounds in AB Red (stored at 21-25° C., 9 days): 0.20 µg/mL | Stability of Plant-Derived Cannabinoid Compounds in AB Red (stored at 21-25° C., 10 days): 0.20 µg/mL | Stability of Plant-Derived Cannabinoid Compounds in AB Red (stored at 21-25° C., 11 days): 0.20 µg/mL | Stability of Plant-Derived Cannabinoid Compounds in AB Red (stored at 21-25° C., 12 days): 0.20 µg/mL | Stability of Plant-Derived Cannabinoid Compounds in AB Red (stored at 21-25° C., 15 days): 0.20 µg/mL | Stability of Plant-Derived Cannabinoid Compounds in AB Red (stored at 21-25° C., 16 days): 0.19 µg/mL | Stability of Plant-Derived Cannabinoid Compounds in AB Red (stored at 21-25° C., 17 days): 0.20 µg/mL | Stability of Plant-Derived Cannabinoid Compounds in AB Red (stored at 21-25° C., 18 days): 0.20 µg/mL | Stability of Plant-Derived Cannabinoid Compounds in AB Red (stored at 21-25° C., 19 days): 0.19 µg/mL | Stability of Plant-Derived Cannabinoid Compounds in AB Red (stored at 21-25° C., 22 days): 0.20 µg/mL | Stability of Plant-Derived Cannabinoid Compounds in AB Red (stored at 21-25° C., 23 days): 0.19 µg/mL | Stability of Plant-Derived Cannabinoid Compounds in AB Red (stored at 21-25° C., 24 days): 0.19 µg/mL | Stability of Plant-Derived Cannabinoid Compounds in AB Red (stored at 21-25° C., 25 days): 0.19 µg/mL | Stability of Plant-Derived Cannabinoid Compounds in AB Red (stored at 21-25° C., 26 days): 0.19 µg/mL | Stability of Plant-Derived Cannabinoid Compounds in AB Red (stored at 21-25° C., 29 days): 0.19 µg/mL | Stability of Plant-Derived Cannabinoid Compounds in AB Red (stored at 21-25° C., 30 days): 0.20 µg/mL | Stability of Plant-Derived Cannabinoid Compounds in AB Red (stored at 21-25° C., 60 days): 0.20 µg/mL | Stability of Plant-Derived Cannabinoid Compounds in AB Red (stored at 21-25° C., 90 days): 0.19 µg/mL | Stability of Plant-Derived Cannabinoid Compounds in AB Red (stored at 21-25° C., 120 days): 0.19 µg/mL | Stability of Plant-Derived Cannabinoid Compounds in AB Red (stored at 21-25° C., 150 days): 0.20 µg/mL | Stability of Plant-Derived Cannabinoid Compounds in AB Red (stored at 21-25° C., 180 days): 0.20 µg/mL | Stability of Plant-Derived Cannabinoid Compounds in AB Red (stored at 21-25° C., 210 days): 0.19 µg/mL | Stability of Plant-Derived Cannabinoid Compounds in AB Red (stored at 21-25° C., 240 days): 0.20 µg/mL | Stability of Plant-Derived Cannabinoid Compounds in AB Red (stored at 21-25° C., 270 days): 0.20 µg/mL | Stability of Plant-Derived Cannabinoid Compounds in AB Red (stored at 21-25° C., 300 days): 0.19 µg/mL | Stability of Plant-Derived Cannabinoid Compounds in AB Red (stored at 21-25° C., 330 days): 0.19 µg/mL | Stability of Plant-Derived Cannabinoid Compounds in AB Red (stored at 21-25° C., 360 days): 0.19 µg/mL | Stability of Plant-Derived Cannabinoid Compounds in AB Red (stored at 21-25° C., 390 days): 0.19 µg/mL | Stability of Plant-Derived Cannabinoid Compounds in AB Red (stored at 21-25° C., 420 days): 0.19 µg/mL | Stability of Plant-Derived Cannabinoid Compounds in AB Red (stored at 21-25° C., 450 days): 0.19 µg/mL | Stability of Plant-Derived Cannabinoid Compounds in AB Red (stored at 21-25° C., 480 days): 0.19 µg/mL | Stability of Plant-Derived Cannabinoid Compounds in AB Red (stored at 21-25° C., 510 days): 0.19 µg/mL | Stability of Plant-Derived Cannabinoid Compounds in AB Red (stored at 21-25° C., 540 days): 0.19 µg/mL | Stability of Plant-Derived Cannabinoid Compounds in AB Red (stored at 21-25° C., 570 days): 0.18 µg/mL

Source: patent publication US20260130395A1, “Water Dispersible Botanical Compositions” (Aquila Black Limited, priority 2021, published 2026)
